Patent US12202835B2, “Substituted aromatic ring-linked dioxinoquinazolines and dioxinoquinolines as kinase inhibitors” (BEIJING SCITECH-MQ PHARMACEUTICALS LIMITED, priority 2018, dated 2025)

Legend:
Type in all cases: cell-based
[1] = tested on: Ba/F3 LMNA-NTRK1-G595R cells; experiment: Assay for inhibiting the proliferation of Ba/F3 LMNA-NTRK1-G595R cells (CCK-8); details: Mus musculus, BaF3
Procedure: In particular, the method of the assay of small molecular compounds for inhibiting cell proliferation is as follows: • 1. Cells cultured to a logarithmic growth phase (adherent cells need to be digested with trypsin and neutralized) were taken, pipetted evenly, transferred to a 15 mL centrifuge tube, and centrifuged at 1000 rpm at room temperature for 4 minutes; • 2. The supernatant was discarded; 5 mL of complete medium was added and pipetted evenly; 10 μL of cell suspension was taken out, mixed well with 10 μL of 0.4% trypan blue, and counted under a cell counter; the proportion of living cells was ensured to be above 90%; • 3. 80 μL of cell suspension per well was seeded into a 96-well plate according to the conditions shown in the attached table, and cultured overnight; in the outer 36 wells of the 96-well plate, no cells were added but only sterile water was added; only the inner 60 wells were used for cell assay and control; • 4. 5×compound dilution: the compounds were serially diluted 3-fold to obtain a total of 9 concentrations; 80-fold overall dilution was completed with complete medium, the resulting concentration was 5 times the final drug concentration, and DMSO concentration was 1.25%; • 5. 20 μL of the corresponding compounds with different concentration gradients were added to each well of assay wells of the 96-well plate; 20 μL of complete medium was added to positive and negative control wells and shaken well; and the final concentration of DMSO in each well was 0.25%; • 6. After 72 hours of incubation, 10 μL of CCK-8 reagent was added to each well and further incubated at 37° C. for 1-2 hours; and the OD value was read at 450 nm; • 7. Cell survival rate (%)=[(As−Ab)/(Ac−Ab)]*100% • As: Assay well (medium containing cells, CCK-8, compound), • Ac: Control well (medium containing cells, CCK-8), • Ab: Blank well (CCK-8, medium without cell and compound), • 8. The values were imported into Graphpad Prism 5 software for IC50 calculation.

MHCC97H cells = experiment: Assay for inhibiting the proliferation of MHCC97H cells (CCK-8); details: Homo sapiens
Method in brief: (§1)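 Cells seeded in 96-well plates overnight, then exposed 72 h to 9 three-fold dilutions of compound (0.25% DMSO final). Viability by CCK-8 (1-2 h at 37° C., OD 450 nm), survival normalized to untreated and cell-free blanks; IC50 by curve fitting.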

EBC1 cells = experiment: Assay for inhibiting the proliferation of EBC1 cells (CCK-8); details: Homo sapiens, EBC-1
Method in brief: as §1

Row | IC50 [1] | Structure (SMILES) | IC50 (MHCC97H cells) | IC50 (EBC1 cells)
1 | 50 to 200 nM | COCCOc1cc2nccc(Oc3ccc(NC(=O)c4cn(C)c(=O)n(-c5ccc(F)cc5)c4=O)cc3)c2c2c1OCCO2 [Example 147, N-(4-((5-(2-methoxyethoxy)-2,3-dihydro-[1,4]dioxino[2,3-f]quinolin-10-yl)oxy)phenyl)-3-(4-fluorophenyl)-1-methyl-2,4-dioxo-1,2,3,4-tetrahydropyrimidine-5-carboxamide] |  | 
2 | > 1000 nM | Cn1cc(C(=O)Nc2ccc(Oc3ccnc4cc(OCC(C)(C)O)c5c(c34)OCCO5)cc2)c(=O)n(-c2ccc(F)cc2)c1=O [Example 149, N-(4-((5-(2-hydroxy-2-methylpropoxy)-2,3-dihydro-[1,4]dioxino[2,3-f]quinolin-10-yl)oxy)phenyl)-3-(4-fluorophenyl)-1-methyl-2,4-dioxo-1,2,3,4-tetrahydropyrimidine-5-carboxamide] |  | 
3 | ≤ 50 nM | COCCOc1cc2nccc(Oc3ccc(NC(=O)c4cn(C)c(=O)n(-c5ccc(F)cc5)c4=O)c(F)c3)c2c2c1OCCO2 [Example 155, N-(2-fluoro-4-((5-(2-methoxyethoxy)-2,3-dihydro-[1,4]dioxino[2,3-f]quinolin-10-yl)oxy)phenyl)-3-(4-fluorophenyl)-1-methyl-2,4-dioxo-1,2,3,4-tetrahydropyrimidine-5-carboxamide] |  | 
4 | 200 to 1000 nM | Cn1cc(C(=O)Nc2ccc(Oc3ncnc4cc(OCCCN5CCOCC5)c5c(c34)OCCO5)c(F)c2)c(=O)n(-c2ccc(F)cc2)c1=O [Example 30, N-(3-fluoro-4-((5-(3-morpholinopropoxy)-2,3-dihydro-[1,4]dioxino[2,3-f]quinazolin-10-yl)oxy)phenyl)-3-(4-fluorophenyl)-1-methyl-2,4-dioxo-1,2,3,4-tetrahydropyrimidine-5-carboxamide] |  | 
5 | 50 to 200 nM | Cn1cc(C(=O)Nc2ccc(Oc3ccnc4ccc5c(c34)OCCO5)cc2F)c(=O)n(-c2ccc(F)cc2)c1=O [Example 162, N-(4-((2,3-dihydro-[1,4]dioxino[2,3-f]quinolin-10-yl)oxy)-2-fluorophenyl)-3-(4-fluorophenyl)-1-methyl-2,4-dioxo-1,2,3,4-tetrahydropyrimidine-5-carboxamide] |  | 
6 | 200 to 1000 nM | CC(C)n1cc(C(=O)Nc2ccc(Oc3ccnc4cc(OCCCN(C)C5CCC5)c5c(c34)OCCO5)c(F)c2)c(=O)n(-c2ccc(F)cc2)c1=O [Example 96, N-(3-fluoro-4-((5-(3-((cyclobutyl)(methyl)amino)propoxy)-2,3-dihydro-[1,4]dioxino[2,3-f]quinolin-10-yl)oxy)phenyl)-3-(4-fluorophenyl)-1-isopropyl-2,4-dioxo-1,2,3,4-tetrahydropyrimidine-5-carboxamide] |  | 
7 | 50 to 200 nM | Cn1cc(C(=O)Nc2ccc(Oc3ccnc4cc(OCCCN5CCOCC5)c5c(c34)OCCO5)cc2Cl)c(=O)n(-c2ccc(F)cc2)c1=O [Example 98, N-(2-chloro-4-((5-(3-morpholinopropoxy)-2,3-dihydro-[1,4]dioxino[2,3-f]quinolin-10-yl)oxy)phenyl)-3-(4-fluorophenyl)-1-methyl-2,4-dioxo-1,2,3,4-tetrahydropyrimidine-5-carboxamide] |  | 
8 | ≤ 50 nM | COc1cc2nccc(Oc3ccc(NC(=O)c4cn(C)c(=O)n(-c5ccc(F)cc5)c4=O)c(F)c3)c2c2c1OCCO2 [Example 153, N-(2-fluoro-4-((5-methoxy-2,3-dihydro-[1,4]dioxino[2,3-f]quinolin-10-yl)oxy)phenyl)-3-(4-fluorophenyl)-1-methyl-2,4-dioxo-1,2,3,4-tetrahydropyrimidine-5-carboxamide] |  | 
9 | 200 to 1000 nM | CC(C)n1cc(C(=O)Nc2ccc(Oc3ccnc4cc(OCCCN5CCOCC5)c5c(c34)OCCO5)c(F)c2)c(=O)n(-c2ccc(F)cc2)c1=O [Example 16, N-(3-fluoro-4-((5-(3-morpholinopropoxy)-2,3-dihydro-[1,4]dioxino[2,3-f]quinolin-10-yl)oxy)phenyl)-3-(4-fluorophenyl)-1-isopropyl-2,4-dioxo-1,2,3,4-tetrahydropyrimidine-5-carboxamide] |  | 
10 | ≤ 50 nM | CCOc1cc2nccc(Oc3ccc(NC(=O)c4cn(C)c(=O)n(-c5ccc(F)cc5)c4=O)c(Cl)c3)c2c2c1OCCO2 [Example 129, N-(2-chloro-4-((5-ethoxy-2,3-dihydro-[1,4]dioxino[2,3-f]quinolin-10-yl)oxy)phenyl)-3-(4-fluorophenyl)-1-methyl-2,4-dioxo-1,2,3,4-tetrahydropyrimidine-5-carboxamide] |  | 
11 | 200 to 1000 nM | CCn1cc(C(=O)Nc2ccc(Oc3ccnc4cc(OC)c5c(c34)OCCO5)cc2)c(=O)n(-c2ccc(F)cc2)c1=O [Example 146, N-(4-((5-methoxy-2,3-dihydro-[1,4]dioxino[2,3-f]quinolin-10-yl)oxy)phenyl)-3-(4-fluorophenyl)-1-ethyl-2,4-dioxo-1,2,3,4-tetrahydropyrimidine-5-carboxamide] |  | 
12 | ≤ 50 nM | COc1cc2nccc(Oc3ccc(NC(=O)c4cn(C)c(=O)n(-c5ccc(F)cc5)c4=O)c(Cl)c3)c2c2c1OCCO2 [Example 125, N-(2-chloro-4-((5-methoxy-2,3-dihydro-[1,4]dioxino[2,3-f]quinolin-10-yl)oxy)phenyl)-3-(4-fluorophenyl)-1-methyl-2,4-dioxo-1,2,3,4-tetrahydropyrimidine-5-carboxamide] |  | 
13 | ≤ 50 nM | Cn1cc(C(=O)Nc2ccc(Oc3ccnc4cc(OCCCN5CCCCC5)c5c(c34)OCCO5)cc2Cl)c(=O)n(-c2ccc(F)cc2)c1=O [Example 137, N-(2-chloro-4-((5-((3-piperidin-1-yl)propoxy)-2,3-dihydro-[1,4]dioxino[2,3-f]quinolin-10-yl)oxy)phenyl)-3-(4-fluorophenyl)-1-methyl-2,4-dioxo-1,2,3,4-tetrahydropyrimidine-5-carboxamide] |  | 
14 | 50 to 200 nM | CC(C)n1cc(C(=O)Nc2ccc(Oc3ccnc4cc(OCCCN5CCOCC5)c5c(c34)OCCO5)c(Cl)c2)c(=O)n(-c2ccc(F)cc2)c1=O [Example 97, N-(3-chloro-4-((5-(3-morpholinopropoxy)-2,3-dihydro-[1,4]dioxino[2,3-f]quinolin-10-yl)oxy)phenyl)-3-(4-fluorophenyl)-1-isopropyl-2,4-dioxo-1,2,3,4-tetrahydropyrimidine-5-carboxamide] |  | 
15 | 50 to 200 nM | CCn1cc(C(=O)Nc2ccc(Oc3ccnc4cc(OCCOC)c5c(c34)OCCO5)cc2F)c(=O)n(-c2ccc(F)cc2)c1=O [Example 156, N-(2-fluoro-4-((5-(2-methoxyethoxy)-2,3-dihydro-[1,4]dioxino[2,3-f]quinolin-10-yl)oxy)phenyl)-3-(4-fluorophenyl)-1-ethyl-2,4-dioxo-1,2,3,4-tetrahydropyrimidine-5-carboxamide] |  | 
16 |  | CCOc1ccn(-c2ccc(F)cc2)c(=O)c1C(=O)Nc1ccc(Oc2ccnc3cc(OC)c4c(c23)OCCO4)c(F)c1 [Example 19, N-(3-fluoro-4-((5-methoxy-2,3-dihydro-[1,4]dioxino[2,3-f]quinolin-10-yl)oxy)phenyl)-1-(4-fluorophenyl)-4-ethoxy-2-oxo-1,2-dihydropyridine-3-carboxamide] | ≤ 50 nM | ≤ 50 nM
17 |  | CCOc1ccn(-c2ccc(F)cc2)c(=O)c1C(=O)Nc1ccc(Oc2ccnc3cc(OCCCN4CCOCC4)c4c(c23)OCCO4)c(F)c1 [Example 22, N-(3-fluoro-4-((5-(3-morpholinopropoxy)-2,3-dihydro-[1,4]dioxino[2,3-f]quinolin-10-yl)oxy)phenyl)-1-(4-fluorophenyl)-4-ethoxy-2-oxo-1,2-dihydropyridine-3-carboxamide] | ≤ 50 nM | ≤ 50 nM
18 |  | COc1cc2nccc(Oc3ccc(NC(=O)c4cn(CCCO)c(=O)n(-c5ccc(F)cc5)c4=O)cc3F)c2c2c1OCCO2 [Example 99, N-(3-fluoro-4-((5-methoxy-2,3-dihydro-[1,4]dioxino[2,3-f]quinolin-10-yl)oxy)phenyl)-3-(4-fluorophenyl)-1-(3-hydroxypropyl)-2,4-dioxo-1,2,3,4-tetrahydropyrimidine-5-carboxamide] | 50 to 200 nM | ≤ 50 nM
19 |  | COc1ccn(-c2ccc(F)cc2)c(=O)c1C(=O)Nc1ccc(Oc2ncnc3cc(OCCCN4CCOCC4)c4c(c23)OCCO4)c(F)c1 [Example 5, N-(3-fluoro-4-((5-(3-morpholinopropoxy)-2,3-dihydro-[1,4]dioxino[2,3-f]quinazolin-10-yl)oxy)phenyl)-1-(4-fluorophenyl)-4-methoxy-2-oxo-1,2-dihydropyridine-3-carboxamide] | 50 to 200 nM | ≤ 50 nM
20 |  | C=CCn1cc(C(=O)Nc2ccc(Oc3ccnc4cc(OC)c5c(c34)OCCO5)c(F)c2)c(=O)n(-c2ccc(F)cc2)c1=O [Example 100, N-(3-fluoro-4-((5-methoxy-2,3-dihydro-[1,4]dioxino[2,3-f]quinolin-10-yl)oxy)phenyl)-3-(4-fluorophenyl)-1-allyl-2,4-dioxo-1,2,3,4-tetrahydropyrimidine-5-carboxamide] | ≤ 50 nM | ≤ 50 nM
